According to US20050043292A1, “Fluorinated lysine derivatives as dipeptidyl peptidase IV inhibitors” (Pfizer Inc, priority 2003, published 2005):
Where a name gives a salt, the structure may show the parent alone.

Biological target: T1, DPP-IV (Homo sapiens, UniProt P27487)
T1 construct: purchased Enzyme Systems Products SPE-01
Assay: In vitro Assay for Dipeptidyl Peptidase Inhibition
Type: biochemical
Conditions: in vitro activity, Gly-Pro-4-methoxy-β-naphthylamide substrate, overnight at 37° C., read-out: IC50 (concentration of test compound required for 50% inhibition)
Description: 150 μL of an enzyme-substrate solution is pipetted into microtiter wells of a polystyrene 96-well plate, and maintained at 4° C. The enzyme-substrate solution comprises 50 μM Gly-Pro4-methoxy B naphthylamide HCl in 50 mM Tris assay buffer pH 7.3 containing 0.1M sodium chloride, 0.1% (v/v) Triton and 50 μU/mL DPP-IV (Enzyme Systems Products Cat#SPE-01, DPP-IV 5 mU/mL stock). 5μL/well of compounds of Formula I are added, bringing the final compound of Formula I concentrations to 3 μM-10 nM per well.
Controls. Enzyme is omitted from four (4) wells, as a reagent blank. 5 μL of 3 mM Diprotin A is added to four wells as a positive quality control, providing a final Diprotin A concentration of 100 μM. To measure total enzyme activity (i.e. a negative control), without the influence of any compounds of Formula I, 5 μL of distilled water is added to four wells.
The entire assay is incubated overnight (about 14-18 hours) at 37° C.

T1 sequence (P27487 whole entry, species assumed): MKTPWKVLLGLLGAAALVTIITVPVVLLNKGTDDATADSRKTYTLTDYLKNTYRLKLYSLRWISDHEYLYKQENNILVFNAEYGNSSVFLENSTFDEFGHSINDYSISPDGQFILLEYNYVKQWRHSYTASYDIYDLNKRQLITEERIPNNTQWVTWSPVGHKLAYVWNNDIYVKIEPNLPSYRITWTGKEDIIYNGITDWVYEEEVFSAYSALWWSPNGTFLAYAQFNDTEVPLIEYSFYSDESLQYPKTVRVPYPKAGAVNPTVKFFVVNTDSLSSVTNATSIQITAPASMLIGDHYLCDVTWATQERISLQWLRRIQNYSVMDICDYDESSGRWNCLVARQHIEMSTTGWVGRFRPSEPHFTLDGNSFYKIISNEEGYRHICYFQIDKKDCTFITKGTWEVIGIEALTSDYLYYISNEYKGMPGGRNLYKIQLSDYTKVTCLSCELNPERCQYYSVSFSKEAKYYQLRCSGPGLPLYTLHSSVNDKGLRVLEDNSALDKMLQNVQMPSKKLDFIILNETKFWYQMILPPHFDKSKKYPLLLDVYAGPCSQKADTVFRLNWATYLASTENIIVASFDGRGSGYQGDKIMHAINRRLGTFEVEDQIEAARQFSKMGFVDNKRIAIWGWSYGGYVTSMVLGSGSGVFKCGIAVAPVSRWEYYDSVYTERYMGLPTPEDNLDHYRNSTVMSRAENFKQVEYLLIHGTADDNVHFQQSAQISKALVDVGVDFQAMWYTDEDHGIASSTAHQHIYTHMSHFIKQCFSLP

Compound: N[C@@H](CCCCNC(=O)COc1ccccc1)C(=O)N1CC(F)(F)C(F)(F)C1 [Example 6, (S)-N-[5-Amino-6-oxo-6-(3,3,4,4-tetrafluoro-pyrrolidin-1-yl)-hexyl]-2-phenoxy-acetamide Hydrochloride]
- IC50: ~1.4 µM
